These results are taken from patent US8530650B2, “2, 5-diamino-substituted pyrido [4, 3-D] pyrimidines as autotaxin inhibitors against cancer” (MERCK PATENT GmbH, priority 2008, dated 2013).

What is called IC50 is the midpoint of a concentration-inhibition curve.

This test concerns the target T1, recombinant autotaxin (Homo sapiens, UniProt Q13822).
T1 construct: made in house; host or cells: Hi5 insect cells (baculovirus)
The test is described as follows: Autotaxin assay (Amplex Red, LPC substrate). It counts as biochemical. The following applies: 75 μM LPC, Amplex Red fluorescence, ten 1:3 dilutions starting at 30 μM. Put shortly:
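Baculovirus (Hi5)-expressed autotaxin (16 ng) was preincubated with compound 30 min at 22° C., then reacted with 75 μM final egg LPC for 90 min at 37° C.; choline released was coupled via choline oxidase/peroxidase to Amplex Red, fluorescence read kinetically (ex 485/em 612 nm). IC50 from 10-point 1:3 dilutions from 30 μM, duplicates, normalized to 500 μM C14 LPA as 0%.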

Molecules are shown by their SMILES.

For the molecule `CCN1CCN(C(=O)C2CCN(c3nccc4nc(NCc5ccccc5Cl)ncc34)CC2)CC1` [Compound 72, {1-[2-(2-Chloro-benzylamino)-pyrido[4,3-d]pyrimidin-5-yl]-piperidin-4-yl}-(4-ethyl-piperazin-1-yl)-methanone], the IC50 was < 5 µM. The value for `COc1ccc(Nc2nccc3nc(NCc4ccccc4OC)ncc23)cc1` [Compound 35, N2-(2-Methoxy-benzyl)-N5-(4-methoxy-phenyl)-pyrido[4,3-d]pyrimidine-2,5-diamine] was < 30 µM; that for `CCOC(=O)N1CCN(c2nccc3nc(NCc4ccccc4Cl)ncc23)CC1` [Compound 114, 4-[2-(2-Chloro-benzylamino)-pyrido[4,3-d]pyrimidin-5-yl]-piperazine-1-carboxylic acid ethyl ester] was < 5 µM; that for `O=C(NCCO)C1CCN(c2nccc3nc(NCc4ccccc4Cl)ncc23)CC1` [Compound 105, 1-[2-(2-Chloro-benzylamino)-pyrido[4,3-d]pyrimidin-5-yl]-piperidine-4-carboxylic acid (2-hydroxy-ethyl)-amide] was < 30 µM.

Consider `COC(=O)c1ccc(Nc2nccc3nc(NCc4ccc(Cl)cc4)ncc23)cc1` [Compound 50, 4-[2-(4-Chloro-benzylamino)-pyrido[4,3-d]pyrimidin-5-ylamino]-benzoic acid methyl ester], for which the IC50 is < 30 µM. Under `COc1ccc(Nc2nccc3nc(NCc4ccc(F)cc4)ncc23)cc1` [Compound 23, N2-(4-Fluoro-benzyl)-N5-(4-methoxy-phenyl)-pyrido[4,3-d]pyrimidine-2,5-diamine] stands < 30 µM. For the molecule `Fc1ccc(Nc2nccc3nc(NCc4ccccc4)ncc23)cc1` [Compound 2, N2-Benzyl-N5-(4-fluoro-phenyl)-pyrido[4,3-d]pyrimidine-2,5-diamine], the IC50 was < 30 µM. Regarding `O=C(NCc1cccnc1)C1CCN(c2nccc3nc(NCc4ccccc4Cl)ncc23)CC1` [Compound 62, 1-[2-(2-Chloro-benzylamino)-pyrido[4,3-d]pyrimidin-5-yl]-piperidine-4-carboxylic acid (pyridin-3-ylmethyl)-amide], the IC50 was < 5 µM. Under `O=C(C1CCN(c2nccc3nc(NCc4ccccc4Cl)ncc23)CC1)N1CCCC1` [Compound 66, {1-[2-(2-Chloro-benzylamino)-pyrido[4,3-d]pyrimidin-5-yl]-piperidin-4-yl}-pyrrolidin-1-yl-methanone] stands < 5 µM; under `Clc1ccccc1CNc1ncc2c(NCCc3ccccn3)nccc2n1` [Compound 146, N2-(2-Chloro-benzyl)-N5-(2-pyridin-2-yl-ethyl)-pyrido[4,3-d]pyrimidine-2,5-diamine], < 30 µM; under `COc1ccc(CNc2ncc3c(N4CCCC(C(=O)N5CCN(c6ccccn6)CC5)C4)nccc3n2)cc1` (centres unmarked) [Compound 95, {1-[2-(4-Methoxy-benzylamino)-pyrido[4,3-d]pyrimidin-5-yl]-piperidin-3-yl}-(4-pyridin-2-yl-piperazin-1-yl)-methanone], < 30 µM.

For the molecule `COc1ccc(Nc2nccc3nc(NCc4ccccc4Cl)ncc23)cc1OC` [Compound 12, N2-(2-Chloro-benzyl)-N5-(3,4-dimethoxy-phenyl)-pyrido[4,3-d]pyrimidine-2,5-diamine], the IC50 is < 30 µM. In the case of `COc1ccc(CNc2ncc3c(Nc4cc(OC)ccc4OC)nccc3n2)cc1` [Compound 51, N5-(2,5-Dimethoxy-phenyl)-N2-(4-methoxy-benzyl)-pyrido[4,3-d]pyrimidine-2,5-diamine], the IC50 was < 30 µM. As to `CCCN1CCN(C(=O)C2CCN(c3nccc4nc(NCc5ccccc5Cl)ncc34)CC2)CC1` [Compound 97, {1-[2-(2-Chloro-benzylamino)-pyrido[4,3-d]pyrimidin-5-yl]-piperidin-4-yl}-(4-propyl-piperazin-1-yl)-methanone], the IC50 is < 10 µM.

With `CCOc1ccccc1Nc1nccc2nc(NCc3ccccc3OC)ncc12` [Compound 32, N5-(2-Ethoxy-phenyl)-N2-(2-methoxy-benzyl)-pyrido[4,3-d]pyrimidine-2,5-diamine], the IC50 was < 30 µM. Consider `Fc1ccc(CNc2ncc3c(Nc4ccc(F)cc4)nccc3n2)cc1` [Compound 21, N2-(4-Fluoro-benzyl)-N5-(4-fluoro-phenyl)-pyrido[4,3-d]pyrimidine-2,5-diamine], for which the IC50 was < 30 µM. Under `CS(=O)(=O)CS(=O)(=O)N1CCN(c2nccc3nc(NCc4ccccc4Cl)ncc23)CC1` [Compound 156, (2-Chloro-benzyl)-[5-(4-methanesulfonylmethanesulfonyl-piperazin-1-yl)-pyrido[4,3-d]pyrimidin-2-yl]-amine] stands < 30 µM; under `Clc1ccccc1CNc1ncc2c(N3CCN(c4nccs4)CC3)nccc2n1` [Compound 109, (2-Chloro-benzyl)-[5-(4-thiazol-2-yl-piperazin-1-yl)-pyrido[4,3-d]pyrimidin-2-yl]amine], < 10 µM. Under `CCCNC(=O)C1CCN(c2nccc3nc(NCc4ccccc4Cl)ncc23)CC1` [Compound 68, 1-[2-(2-Chloro-benzylamino)-pyrido[4,3-d]pyrimidin-5-yl]-piperidine-4-carboxylic acid propylamide] stands < 10 µM; under `O=C(NCc1ccc(F)cc1Cl)C1CCN(c2nccc3nc(NCc4ccccc4Cl)ncc23)CC1` [Compound 144, 1-[2-(2-Chloro-benzylamino)-pyrido[4,3-d]pyrimidin-5-yl]-piperidine-4-carboxylic acid 2-chloro-4-fluoro-benzylamide], < 30 µM; under `COc1ccccc1CNc1ncc2c(N3CCC(C(=O)N4CCN(c5ccccn5)CC4)CC3)nccc2n1` [Compound 76, {1-[2-(2-Methoxy-benzylamino)-pyrido[4,3-d]pyrimidin-5-yl]-piperidin-4-yl}-(4-pyridin-2-yl-piperazin-1-yl)-methanone], < 30 µM. `Cn1cc(CCC(=O)N2CCN(c3nccc4nc(NCc5ccccc5Cl)ncc34)CC2)cn1` [Compound 120, 1-{4-[2-(2-Chloro-benzylamino)-pyrido[4,3-d]pyrimidin-5-yl]-piperazin-1-yl}-3-(1-methyl-1H-pyrazol-4-yl)-propan-1-one]: the concentration for half-maximal inhibition (IC50) was < 30 µM.

As to `Fc1ccccc1Nc1nccc2nc(NCc3ccccc3Cl)ncc12` [Compound 100, N2-(2-Chloro-benzyl)-N5-(2-fluoro-phenyl)-pyrido[4,3-d]pyrimidine-2,5-diamine], the IC50 is < 10 µM. Consider `O=C(Nc1cccnc1)C1CCN(c2nccc3nc(NCc4ccc(Cl)cc4)ncc23)CC1` [Compound 78, 1-[2-(4-Chloro-benzylamino)-pyrido[4,3-d]pyrimidin-5-yl]-piperidine-4-carboxylic acid pyridin-3-ylamide], for which the IC50 was < 5 µM.

In the case of `O=C(NCc1ccco1)C1CCN(c2nccc3nc(NCc4ccccc4Cl)ncc23)CC1` [Compound 65, 1-[2-(2-Chloro-benzylamino)-pyrido[4,3-d]pyrimidin-5-yl]-piperidine-4-carboxylic acid (furan-2-ylmethyl)-amide], the IC50 is < 5 µM. Under `CN(C)C(=O)C1CCN(c2nccc3nc(NCc4ccccc4Cl)ncc23)CC1` [Compound 140, 1-[2-(2-Chloro-benzylamino)-pyrido[4,3-d]pyrimidin-5-yl]-piperidine-4-carboxylic acid dimethylamide] stands < 30 µM.
